Read-outs that look alike come from different tables or passages of the source.
How the values were obtained:
[1] = tested on: platelet aggregation in platelet-rich plasma (PRP); assay: In vitro inhibition of platelet aggregation, method of Born; format: cell-based; conditions: Oryctolagus cuniculus, read-out: IC50 of diethyl sulphite
Procedure: (§1) In order to evaluate the effectiveness of diethyl sulphite as an anti-platelet aggregatory agent the following experiments are carried out.
(A) In vitro Platelet-rich plasma (PRP) is prepared from a rabbit and the IC50 value is determined according to the method of Born, "Nature", 194, 927-929 (1962). The IC50 is the estimated concentration of the agent necessary to inhibit 50 percent of the platelet aggregation. The data tabulated below is obtained.

platelet aggregation = assay: Ex vivo inhibition of platelet aggregation after injection into a rabbit; conditions: 219 mg injected, 3.06 kg rabbit, about 10 millimolar in blood, 10 minutes
Procedure: as §1
(B) Ex vivo A rabbit weighing 3.06 kg is injected with 219 mg of diethyl sulphite to give a concentration of about 10 millimolar diethyl sulphite in the blood. After 10 minutes, a blood sample is withdrawn and the percent inhibition of platelet aggregation, as compared to a blood sample taken before injection, is determined.

thrombotic disorders = assay: Treatment of thrombotic disorders in rats; format: in vivo, rat; conditions: aqueous suspension, e.g. 0.5 to 2.5 millimolar
Procedure: (§2) Dimethyl sulphite and diethyl sulphite are successively prepared by esterifying 2 moles of each respective alkanol with 1 mole of thionyl chloride. The diethyl ester is a colourless liquid (b.p. 159°) with an aromatic odour, believed to have the following formula: [drawing 17] A composition based on this compound, e.g. an aqueous suspension having a concentration in the range from 0.5 to 2.5 millimolar, is effective in the treatment of thrombotic and hypertensive disorders in rats. It is theorized to be activated in vivo by virtue of its conversion to sulphite ions.

hypertensive disorders = assay: Treatment of hypertensive disorders in rats; format: in vivo, rat; conditions: aqueous suspension, e.g. 0.5 to 2.5 millimolar
Procedure: as §2

CCOS(=O)OCC [diethyl sulphite]
IC50 ([1]; stimulus: U-46619, rabbit PRP): 11 mM | IC50 ([1]; stimulus: adenosine diphosphate (ADP), rabbit PRP): 35 mM | IC50 ([1]; stimulus: arachidonic acid, rabbit PRP): 6.25 mM | percent inhibition of platelet aggregation (platelet aggregation; stimulus: ADP): 29% | percent inhibition of platelet aggregation (platelet aggregation; stimulus: U-46619): 12% | percent inhibition of platelet aggregation (platelet aggregation; stimulus: arachidonic acid): 0% | effectiveness in the treatment of thrombotic disorders (thrombotic disorders): effective | effectiveness in the treatment of hypertensive disorders (hypertensive disorders): effective

Source: patent US4555522A, “Antithrombotic and/or antihypertensive compositions” (T & R Chemicals, Inc., priority 1983, dated 1985)
